pIC50: −log10 of the molar value.
Test: Inhibition interleukin-5 in mouse Y16 cells after 48 hrs by WST-1 assay

Row | pIC50 | Structure (SMILES)
1 | 5.10 | O=c1c(CCC(O)c2ccc(Cl)c(Cl)c2)coc2cccc(OCC3CCCCC3)c12 (centres undefined)
2 | 4.92 | O=c1c(CCC(O)c2ccccc2)coc2cccc(OCC3CCCCC3)c12 (centres undefined)
3 | 5.05 | O=c1c(CCC(O)c2ccc(F)cc2)coc2cccc(OCC3CCCCC3)c12 (centres undefined)
4 | 5.40 | O=c1c(CCC(O)c2ccc(O)cc2)coc2cccc(OCC3CCCCC3)c12 (centres undefined)
5 | < 4.52 | Cc1ccc(C(=O)CCc2coc3cccc(OCC4CCCCC4)c3c2=O)cc1
6 | 4.70 | O=C(CCc1coc2cccc(OCC3CCCCC3)c2c1=O)c1ccc(F)cc1
7 | < 4.52 | O=C(CCc1coc2cccc(OCC3CCCCC3)c2c1=O)c1ccccc1
8 | 4.77 | N#Cc1ccc(C(=O)CCc2coc3cccc(OCC4CCCCC4)c3c2=O)cc1
9 | < 4.52 | CC(C)(C)c1ccc(C(O)CCc2coc3cccc(OCC4CCCCC4)c3c2=O)cc1 (centres undefined)
10 | < 4.52 | O=C(CCc1coc2cccc(OCC3CCCCC3)c2c1=O)c1ccc2ccccc2c1
11 | < 4.52 | COc1ccc(C(=O)CCC2COc3cccc(OCC4CCCCC4)c3C2=O)cc1 (centres undefined)
12 | 4.66 | O=C(CCc1coc2cccc(OCC3CCCCC3)c2c1=O)c1ccc(Cl)c(Cl)c1
13 | 5.05 | O=c1c(CCC(O)c2ccc(Cl)cc2)coc2cccc(OCC3CCCCC3)c12 (centres undefined)
14 | < 4.52 | CC(C)(C)c1ccc(C(=O)CCc2coc3cccc(OCC4CCCCC4)c3c2=O)cc1
15 | 4.85 | O=C(CCc1coc2cccc(OCC3CCCCC3)c2c1=O)c1ccc(Cl)cc1
16 | 4.82 | O=C(CCc1coc2cccc(OCC3CCCCC3)c2c1=O)c1ccc(O)cc1
17 | < 4.52 | O=C(CCC1COc2cccc(OCC3CCCCC3)c2C1=O)c1ccc(Cl)c(Cl)c1 (centres undefined)
18 | 4.77 | O=c1c(CCC(O)c2ccc3ccccc3c2)coc2cccc(OCC3CCCCC3)c12 (centres undefined)
19 | 4.82 | N#Cc1ccc(C(O)CCc2coc3cccc(OCC4CCCCC4)c3c2=O)cc1 (centres undefined)
20 | 4.80 | COc1ccc(C(=O)CCc2coc3cccc(OCC4CCCCC4)c3c2=O)cc1
21 | 5.19 | COc1ccc(C(O)CCc2coc3cccc(OCC4CCCCC4)c3c2=O)cc1 (centres undefined)
22 | < 4.52 | O=c1c(CCC(O)c2ccc(C(F)(F)F)cc2)coc2cccc(OCC3CCCCC3)c12 (centres undefined)
23 | < 4.52 | O=C(CCc1coc2cccc(OCC3CCCCC3)c2c1=O)c1ccc(C(F)(F)F)cc1
24 | < 4.52 | Cc1ccc(C(O)CCc2coc3cccc(OCC4CCCCC4)c3c2=O)cc1 (centres undefined)
